Like-named read-outs stand apart in the source and are kept apart here.
How the values were obtained:
RET kinase = target: T1, RET kinase (Homo sapiens, UniProt P07949); assay: RET Kinase Assay; assay type: biochemical; conditions: for IC50: methods of the Biological Data section; for Fold Selectivity RET/MET: ratio RET IC50 / MET IC50
T1 construct: GST tagged recombinant human RET, amino acids 658-1114; GST; purchased Invitrogen; host or cells: insect cells
T1 sequence (P07949 658-1114): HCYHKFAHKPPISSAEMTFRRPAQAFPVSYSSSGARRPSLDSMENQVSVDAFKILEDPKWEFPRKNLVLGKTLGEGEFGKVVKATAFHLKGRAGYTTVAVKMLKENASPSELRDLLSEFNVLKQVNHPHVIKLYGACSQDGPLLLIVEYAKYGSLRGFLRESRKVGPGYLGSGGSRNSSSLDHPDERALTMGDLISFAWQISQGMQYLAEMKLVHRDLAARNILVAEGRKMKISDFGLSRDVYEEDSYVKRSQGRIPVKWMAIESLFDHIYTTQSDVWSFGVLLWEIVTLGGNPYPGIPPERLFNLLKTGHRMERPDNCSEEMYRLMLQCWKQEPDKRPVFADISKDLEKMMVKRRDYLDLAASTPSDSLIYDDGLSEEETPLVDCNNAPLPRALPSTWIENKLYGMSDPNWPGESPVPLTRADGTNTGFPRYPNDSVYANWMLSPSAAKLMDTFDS
Description: Activity of RET kinase was determined by following the production of ADP from the kinase reaction through coupling with the pyruvate kinase/lactate dehydrogenase system (see e.g., Schindler et al. Science (2000) 289: 1938-1942). In this assay, the oxidation of NADH (thus the decrease at A340 nm) was continuously monitored spectrophotometrically. The reaction mixture (100 μl) contained RET (amino acid residues 658-1114, from Invitrogen, 2 nM), polyE4Y (1.5 mg/ml), MgCl2 (18 mM), pyruvate kinase (4 units), lactate dehydrogenase (0.7 units), phosphoenol pyruvate (1 mM), and NADH (0.28 mM) in 90 mM […] buffer containing 0.2% octyl-glucoside, 1 mM DTT and 1% DMSO, pH 7.5. Test compounds were incubated with RET kinase and other reaction reagents at 22° C. for <2 min before ATP (500 μM) was added to start the reaction. The absorption at 340 nm was monitored continuously for 3 hours at 30° C. on BioTek Synergy 2 Reader. The reaction rate was calculated using the 1 to 2 h time frame. Percent inhibition was obtained by comparison of reaction rate with that of a control (i.e., with no test compound). IC50 values were calculated from a series of percent inhibition values determined at a range of inhibitor concentrations using software routines as implemented in the GraphPad Prism software package.
GST tagged recombinant human RET, amino acids 658-1114. Expressed in insect cells.

VEGFR-2 (KDR kinase) [1] = target: T2, VEGFR-2 (KDR kinase) (Homo sapiens, UniProt P35968, DEL940-989/E990V); assay: KDR Kinase Assay (VEGFR-2); assay type: biochemical; conditions: for IC50: methods of the Biological Data section; for Fold Selectivity VEGFR-2/MET: ratio VEGFR-2 IC50 / MET IC50
T2 sequence (P35968 with tags, fused parts or gaps DEL940-989/E990V): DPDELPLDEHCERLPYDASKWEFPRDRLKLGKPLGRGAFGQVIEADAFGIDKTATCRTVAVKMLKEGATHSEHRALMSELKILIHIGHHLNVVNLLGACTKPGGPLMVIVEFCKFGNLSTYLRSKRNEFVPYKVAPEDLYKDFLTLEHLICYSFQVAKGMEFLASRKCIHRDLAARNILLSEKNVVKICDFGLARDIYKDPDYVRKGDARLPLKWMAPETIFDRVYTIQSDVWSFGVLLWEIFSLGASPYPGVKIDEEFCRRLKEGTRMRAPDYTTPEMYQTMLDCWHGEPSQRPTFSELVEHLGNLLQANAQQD
Description: The activity of KDR kinase was determined by following the production of ADP from the kinase reaction through coupling with the pyruvate kinase/lactate dehydrogenase system (e.g., Schindler et al. Science 2000, 289, pp. 1938-1942). In this assay, the oxidation of NADH (thus the decrease at A340 nm) was continuously monitored spectrophotometrically. The reaction mixture (100 μl) contained KDR (Seq ID No. 3, 1.5 nM to 7.1 nM, nominal concentration), polyE4Y (1 mg/mL), pyruvate kinase (3.5 units), lactate dehydrogenase (5.5 units), phosphoenolpyruvate (1 mM), and NADH (0.28 mM) in 60 mM […] buffer containing 0.13% octyl-glucoside, 13 mM MgCl2, 6.8 mM DTT, and 3.5% DMSO at pH 7.5. The reaction was initiated by adding ATP (0.2 mM, final concentration). The absorption at 340 nm was continuously monitored for 3 h at 30° C. on a Polarstar Optima plate reader (BMG) or instrument of similar capacity. The reaction rate was calculated using the 1 h to 2 h time frame. Percent inhibition was obtained by comparison of reaction rate with that of a control (i.e., with no test compound). IC50 values were calculated from a series of percent inhibition values determined at a range of inhibitor concentrations using software routines as implemented in the GraphPad Prism software package.
KDR kinase assay K2 is the same as for assay K1 except that (1) a nominal concentration of 2.1 nM of enzyme was employed (2) the reaction was pre-incubated at 30° C. for 2 h prior to initiation with ATP and (3) 1.0 mM ATP (final concentration) was used to initiate the reaction.
KDR kinase assay K3 is the same as for assay K1 except that (1) a nominal concentration of 1.1 nM of enzyme was employed, (2) the buffer components per 100 μl reaction mixture were as follows: 75 mM Tris buffer containing 0.066% octyl-glucoside, 17 mM MgCl2, and 1% DMSO at pH 7.5, (3) the final concentration of DTT was 0.66 mM, (4) the reaction was pre-incubated at 30° C. for 1 h prior to initiation with ATP, and (5) 1.0 mM ATP (final concentration) was used to initiate the reaction.

c-MET kinase = target: T3, c-MET kinase (Homo sapiens, UniProt P08581); conditions: values published in the '188 application (pp. 96-97); cited from earlier work
T3 construct: His6 with TEV-site leader (N); purchased Invitrogen PV3143
T3 sequence (P08581 with tags, fused parts or gaps): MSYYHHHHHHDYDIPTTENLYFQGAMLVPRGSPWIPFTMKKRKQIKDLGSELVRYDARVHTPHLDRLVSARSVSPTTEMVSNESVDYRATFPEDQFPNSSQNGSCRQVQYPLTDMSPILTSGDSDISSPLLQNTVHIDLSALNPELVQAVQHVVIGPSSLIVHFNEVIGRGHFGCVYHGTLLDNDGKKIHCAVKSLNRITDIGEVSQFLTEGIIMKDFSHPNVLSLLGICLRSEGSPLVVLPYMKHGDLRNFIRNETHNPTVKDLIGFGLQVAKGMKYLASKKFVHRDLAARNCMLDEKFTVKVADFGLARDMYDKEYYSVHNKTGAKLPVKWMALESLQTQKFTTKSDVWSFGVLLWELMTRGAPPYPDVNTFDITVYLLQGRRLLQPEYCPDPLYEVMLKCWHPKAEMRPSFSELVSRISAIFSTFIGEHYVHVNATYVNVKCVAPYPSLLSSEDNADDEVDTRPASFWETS

RON kinase = target: T4, RON kinase (Homo sapiens, UniProt Q04912); conditions: values published in the '188/'556 applications; cited from earlier work
T4 construct: GST tagged recombinant human RON, amino acids 983-1400; GST; host or cells: insect cells
T4 sequence (Q04912 983-1400): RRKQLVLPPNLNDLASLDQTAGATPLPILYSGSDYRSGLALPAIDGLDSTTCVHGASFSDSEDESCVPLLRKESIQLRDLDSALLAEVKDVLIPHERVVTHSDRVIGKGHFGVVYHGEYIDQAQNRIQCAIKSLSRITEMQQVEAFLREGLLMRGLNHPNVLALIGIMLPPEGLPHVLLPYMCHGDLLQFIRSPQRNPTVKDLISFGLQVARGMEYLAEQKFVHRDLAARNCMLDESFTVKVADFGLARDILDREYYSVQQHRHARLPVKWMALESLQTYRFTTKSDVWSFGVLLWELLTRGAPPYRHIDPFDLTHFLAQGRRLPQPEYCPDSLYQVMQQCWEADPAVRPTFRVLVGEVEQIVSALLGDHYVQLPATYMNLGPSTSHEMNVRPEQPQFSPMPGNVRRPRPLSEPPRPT

VEGFR-2 (KDR kinase) [2] = target: T2, VEGFR-2 (KDR kinase); conditions: values published in the '188/'556 applications; cited from earlier work

For `CC(=O)Nc1cc(Oc2cc(F)c(NC(=O)C3(C(=O)Nc4ccc(F)cc4)CC3)cc2F)ccn1` [Compound D, N-(4-(2-acetamidopyridin-4-yloxy)-2,5-difluorophenyl)-N′-(4-fluorophenyl)cyclopropane-1,1-dicarboxamide], the IC50 (RET kinase) was > 3300 nM, the “Fold Selectivity RET/MET” value (RET kinase) was >825 and the IC50 (VEGFR-2 (KDR kinase) [1]) was 52 nM. For the same molecule, the “Fold Selectivity VEGFR-2/MET” value (VEGFR-2 (KDR kinase) [1]) was 13.
With `CC(=O)Nc1cc(Oc2ccc(NC(=O)C3(C(=O)Nc4ccc(F)cc4)CC3)c(F)c2)ccn1` [Compound E, N-(4-(2-acetamidopyridin-4-yloxy)-2-fluorophenyl)-N′-(4-fluorophenyl)cyclopropane-1,1-dicarboxamide] the IC50 (RET kinase) was 43 nM, the “Fold Selectivity RET/MET” value (RET kinase) was 1.65 and the IC50 (VEGFR-2 (KDR kinase) [1]) was 122 nM. The “Fold Selectivity VEGFR-2/MET” value (VEGFR-2 (KDR kinase) [1]) was 4.69.
For `CN1CCN(C2CCN(C(=O)Nc3cc(Oc4cc(F)c(NC(=O)C5(C(=O)Nc6ccc(F)cc6)CC5)cc4F)ccn3)CC2)CC1` [Compound G], the “Fold Selectivity RET/MET” value (RET kinase) is given as 0.81, the “Fold Selectivity VEGFR-2/MET” value (VEGFR-2 (KDR kinase) [1]) is given as 2.13 and the IC50 (c-MET kinase) is given as 53 nM. The IC50 (RON kinase) was 2 nM and the IC50 (VEGFR-2 (KDR kinase) [2]) was 100 nM.
In the case of `O=C(Nc1cc(Oc2cc(F)c(NC(=O)C3(C(=O)Nc4ccc(F)cc4)CC3)cc2F)ccn1)N1CC(CO)C1` [Compound H], the “Fold Selectivity RET/MET” value (RET kinase) is listed as 7, the “Fold Selectivity VEGFR-2/MET” value (VEGFR-2 (KDR kinase) [1]) is listed as 2.5 and the IC50 (c-MET kinase) is listed as 4 nM. The IC50 (RON kinase) was 3 nM and the IC50 (VEGFR-2 (KDR kinase) [2]) was 10 nM.

From patent US8637672B2 (Deciphera Pharmaceuticals, LLC, priority 2010, dated 2014)
